Several values for one entry are separate records, joined by “and”; a condition that tells them apart may be missing. Equal values may be shown once. Activity calls are given as the source filed them.
Experiments:
[1] = Counterscreen for IDE inhibitors: Luminescence-based cell-based high throughput dose response assay to identify compounds that are cytotoxic to HEK cells. [Related pubchem assays: 434962 (Primary screen (IDE inhibitors in singlicate)), 449730 (Counterscreen (Cytotoxicity in triplicate)), 435028 (Confirmation (IDE inhibitors in triplicate)) …; format: functional; conditions: HEK293
Insulin-degrading enzyme = molecular target: T1, Insulin-degrading enzyme (Homo sapiens, UniProt P14735); test: Dose Response: Fluorescence polarization-based cell-based high throughput dose response assay for inhibitors of insulin-degrading enzyme (IDE). [Related pubchem assays: 434962 (Primary screen (IDE inhibitors in singlicate)), 449730 (Counterscreen (Cytotoxicity in triplicate)), 435028 (Confirmation (IDE inhibitors in triplicate)), 434984 (Summary …; format: functional
T1 sequence (P14735 whole entry): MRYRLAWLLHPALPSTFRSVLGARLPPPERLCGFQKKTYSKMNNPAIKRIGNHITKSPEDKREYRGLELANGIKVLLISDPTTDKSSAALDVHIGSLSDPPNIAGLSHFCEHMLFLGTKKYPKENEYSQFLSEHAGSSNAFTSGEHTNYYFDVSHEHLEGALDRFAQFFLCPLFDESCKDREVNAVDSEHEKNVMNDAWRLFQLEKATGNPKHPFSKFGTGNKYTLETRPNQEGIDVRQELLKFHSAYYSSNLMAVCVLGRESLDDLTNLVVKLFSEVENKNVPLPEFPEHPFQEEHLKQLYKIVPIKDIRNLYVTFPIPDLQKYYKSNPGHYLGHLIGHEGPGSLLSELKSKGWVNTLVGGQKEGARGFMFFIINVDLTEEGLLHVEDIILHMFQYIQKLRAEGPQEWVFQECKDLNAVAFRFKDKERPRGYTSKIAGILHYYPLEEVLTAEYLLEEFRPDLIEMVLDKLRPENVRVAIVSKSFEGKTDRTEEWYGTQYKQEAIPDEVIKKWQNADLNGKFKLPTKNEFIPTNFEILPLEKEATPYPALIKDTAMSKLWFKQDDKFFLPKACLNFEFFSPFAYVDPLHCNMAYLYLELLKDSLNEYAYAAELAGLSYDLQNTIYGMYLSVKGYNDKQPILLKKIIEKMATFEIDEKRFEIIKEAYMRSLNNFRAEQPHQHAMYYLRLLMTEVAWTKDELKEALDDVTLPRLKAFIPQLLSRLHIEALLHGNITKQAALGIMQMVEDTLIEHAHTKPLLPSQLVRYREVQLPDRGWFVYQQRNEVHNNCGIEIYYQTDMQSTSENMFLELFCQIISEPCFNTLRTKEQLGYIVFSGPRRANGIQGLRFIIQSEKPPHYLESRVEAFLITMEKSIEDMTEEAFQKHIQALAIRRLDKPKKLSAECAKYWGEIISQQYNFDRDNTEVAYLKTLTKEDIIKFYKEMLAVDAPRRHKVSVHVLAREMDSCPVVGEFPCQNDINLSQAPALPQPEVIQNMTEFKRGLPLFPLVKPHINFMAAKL

[2] = A Cell Based Secondary Assay To Explore Cytotoxicity of Compounds that Sensitize Mycobacterium Tuberculosis to Beta-Lactam Antibiotics.; format: functional
Aspartyl aminopeptidase = Aspartyl aminopeptidase (Plasmodium falciparum 3D7, UniProt Q8I2J3)
Procathepsin L = Procathepsin L (Homo sapiens, UniProt P07711)
[3] = molecular target: Serine/threonine-protein phosphatase PP1-alpha catalytic subunit (Homo sapiens, UniProt P62136); test: inhibition of protein phosphatase 1 activity – biochemical, fluorescence, dose response (AID 2403);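 also: phosphatase turnover of OMFP into fluorescent 3-O-methylfluorescein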
[4] = molecular target: T2, Serine/threonine-protein phosphatase (Homo sapiens, UniProt Q9BPW0); test: Counterscreen for inhibitors of PP1: fluorescence-based biochemical high throughput dose response assay to identify inhibitors of Protein Phosphatase 5 (PP5). [Related pubchem assays: 2034 (Summary (PP5 inhibitors)), 1987 (PP5 inhibitors in singlate), 2235 (PP1 inhibitors in singlate)]
T2 sequence (Q9BPW0 whole entry): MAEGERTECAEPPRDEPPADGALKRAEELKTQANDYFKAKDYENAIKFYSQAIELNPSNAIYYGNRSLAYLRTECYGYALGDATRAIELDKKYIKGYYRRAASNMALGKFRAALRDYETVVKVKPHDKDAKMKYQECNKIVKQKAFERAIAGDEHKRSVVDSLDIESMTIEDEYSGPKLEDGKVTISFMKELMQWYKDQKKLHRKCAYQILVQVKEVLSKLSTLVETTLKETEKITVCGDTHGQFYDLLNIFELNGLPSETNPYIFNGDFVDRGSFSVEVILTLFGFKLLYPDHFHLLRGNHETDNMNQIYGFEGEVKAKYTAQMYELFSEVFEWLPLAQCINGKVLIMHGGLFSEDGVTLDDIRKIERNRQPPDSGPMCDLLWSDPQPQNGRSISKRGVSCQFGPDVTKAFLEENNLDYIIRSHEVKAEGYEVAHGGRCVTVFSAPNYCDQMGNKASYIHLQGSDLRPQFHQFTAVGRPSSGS

INS1 = test: INS-1E survival protection against cytokine death – cell-based, luminescence, retest, dose response (AID 449756); format: functional; conditions: Rattus norvegicus;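 also: cell death triggered by IL-1 beta plus TNF-alpha plus IFN-gamma mixture; protective hits raise ATP signal compared with cytokine alone wells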
Cytochrome P450 2D6 = Cytochrome P450 2D6 (Homo sapiens, UniProt P10635); test: qHTS Assay for Inhibitors and Substrates of Cytochrome P450 2D6. [Related pubchem assays: 410 ]; format: ADME; conditions: read-out: Potency
Aminopeptidase N = Aminopeptidase N (Plasmodium falciparum FcB1/Columbia, UniProt O96935); test: malaria alanyl aminopeptidase activity blockers – biochemical, fluorogenic H-Leu-NHMec substrate, 1536-well (AID 1445); parameters: species or system Plasmodium falciparum 3D7, 3D7
Leucine aminopeptidase = molecular target: T3, Leucine aminopeptidase (Plasmodium falciparum 3D7, UniProt Q8IL11); test: P. falciparum M17LAP inhibitors, primary screen, biochemical, fluorogenic H-Leu-NHMec substrate, 1536-well (AID 1619); format: functional
T3 sequence (Q8IL11 whole entry): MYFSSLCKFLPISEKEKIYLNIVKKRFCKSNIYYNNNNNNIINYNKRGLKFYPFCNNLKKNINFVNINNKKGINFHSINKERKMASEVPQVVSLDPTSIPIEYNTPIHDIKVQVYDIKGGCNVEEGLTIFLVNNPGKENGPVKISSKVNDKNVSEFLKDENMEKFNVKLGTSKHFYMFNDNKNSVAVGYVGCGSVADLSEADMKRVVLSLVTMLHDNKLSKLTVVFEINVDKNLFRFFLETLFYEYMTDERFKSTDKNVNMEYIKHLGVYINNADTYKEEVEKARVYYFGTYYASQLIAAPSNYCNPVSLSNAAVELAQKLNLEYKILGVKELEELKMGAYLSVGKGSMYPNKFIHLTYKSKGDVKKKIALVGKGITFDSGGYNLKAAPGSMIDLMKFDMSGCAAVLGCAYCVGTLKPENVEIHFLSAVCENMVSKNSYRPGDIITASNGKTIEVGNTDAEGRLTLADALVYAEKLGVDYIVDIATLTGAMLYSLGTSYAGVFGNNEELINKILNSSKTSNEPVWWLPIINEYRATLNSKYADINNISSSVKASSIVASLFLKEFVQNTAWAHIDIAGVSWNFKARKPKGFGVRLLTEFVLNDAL

[5] = molecular target: T4, Voltage-gated N-type calcium channel alpha-1B subunit/Amyloid beta A4 precursor protein-binding family A member 1 (Homo sapiens, UniProt Q00975+Q02410); format: protein assay
[6] = molecular target: G-protein coupled receptor 55 (Homo sapiens, UniProt Q9Y2T6); test: inhibition of LPI-stimulated GPR55 beta-arrestin translocation – imaging, U2OS, beta-arrestin-GFP, LPI agonist, primary screen (AID 2013); format: functional;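 also: antagonist potency measured as reduced agonist-driven arrestin aggregation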
[7] = CCR5-tropic HIV-1 fusion blockers – cell-based, CCR5-tropic Env, dose response (AID 2279); format: functional
[8] = molecular target: T4, Voltage-gated N-type calcium channel alpha-1B subunit/Amyloid beta A4 precursor protein-binding family A member 1; format: protein assay; remark: listed apart in the source
[9] = microbe, parasite or virus in culture; format: functional; conditions: Mycobacterium tuberculosis
[10] = molecular target: Induced myeloid leukemia cell differentiation protein Mcl-1 (Homo sapiens, UniProt Q07820); format: functional
Beta-galactosidase = Beta-galactosidase (Escherichia coli, UniProt Q8VNN2); test: detection-enzyme interference by beta-gal modulators – biochemical, E. coli enzyme, set 3, artefact control for CCR6 antagonist project, dose response (AID 504712); format: functional
[11] = molecular target: Eukaryotic translation initiation factor 4E (Mus musculus, UniProt P63073); test: blockers of eIF4G binding by eIF4E – biochemical, TR-FRET, dose response (AID 855); format: functional;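 also: potency for disrupting eIF4E binding to eIF4GI seen as loss of FRET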
Nonstructural protein 1 = Nonstructural protein 1 (Influenza A virus, UniProt Q194T2); format: functional, Influenza A virus (A/California/07/2009(H1N1))
[12] = molecular target: T5, Replicative DNA helicase DnaB (Mycobacterium tuberculosis, UniProt P9WMR3); test: DnaB intein splicing inhibitors, dose response, biochemical, cell-free fluorescence (AID 449749); format: functional
T5 sequence (P9WMR3 whole entry): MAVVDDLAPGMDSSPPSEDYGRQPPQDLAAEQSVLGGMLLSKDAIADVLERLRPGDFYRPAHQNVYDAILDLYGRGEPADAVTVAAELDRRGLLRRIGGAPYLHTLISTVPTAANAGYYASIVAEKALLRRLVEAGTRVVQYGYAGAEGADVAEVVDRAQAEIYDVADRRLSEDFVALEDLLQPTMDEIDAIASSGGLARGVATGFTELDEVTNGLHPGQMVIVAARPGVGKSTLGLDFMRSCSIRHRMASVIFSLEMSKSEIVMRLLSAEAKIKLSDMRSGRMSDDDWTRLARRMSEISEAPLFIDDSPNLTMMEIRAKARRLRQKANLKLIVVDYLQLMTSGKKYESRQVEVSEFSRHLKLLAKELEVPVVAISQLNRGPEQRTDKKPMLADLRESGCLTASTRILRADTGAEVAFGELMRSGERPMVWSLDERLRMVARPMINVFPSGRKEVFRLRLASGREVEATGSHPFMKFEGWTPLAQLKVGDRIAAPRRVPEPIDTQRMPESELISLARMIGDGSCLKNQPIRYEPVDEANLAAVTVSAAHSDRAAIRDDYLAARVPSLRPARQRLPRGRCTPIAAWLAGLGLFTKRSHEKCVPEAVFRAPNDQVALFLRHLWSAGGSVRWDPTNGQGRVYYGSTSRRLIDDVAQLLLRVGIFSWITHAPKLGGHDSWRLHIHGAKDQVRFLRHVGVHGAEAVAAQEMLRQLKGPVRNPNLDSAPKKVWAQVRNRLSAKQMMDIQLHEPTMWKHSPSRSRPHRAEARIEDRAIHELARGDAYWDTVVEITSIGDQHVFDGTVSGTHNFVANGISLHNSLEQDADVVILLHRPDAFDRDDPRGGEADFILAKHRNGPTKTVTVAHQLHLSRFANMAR

Protein RecA = molecular target: T6, Protein RecA (Mycobacterium tuberculosis, UniProt P9WHJ3); test: Fluorescence Cell-Free Homogeneous Dose Retest to Identify Inhibitors of RecA-Intein Splicing Activity. [Related pubchem assays (depositor defined):AID2097, AID2223, AID489010, AID492950]; format: functional
T6 sequence (P9WHJ3 whole entry): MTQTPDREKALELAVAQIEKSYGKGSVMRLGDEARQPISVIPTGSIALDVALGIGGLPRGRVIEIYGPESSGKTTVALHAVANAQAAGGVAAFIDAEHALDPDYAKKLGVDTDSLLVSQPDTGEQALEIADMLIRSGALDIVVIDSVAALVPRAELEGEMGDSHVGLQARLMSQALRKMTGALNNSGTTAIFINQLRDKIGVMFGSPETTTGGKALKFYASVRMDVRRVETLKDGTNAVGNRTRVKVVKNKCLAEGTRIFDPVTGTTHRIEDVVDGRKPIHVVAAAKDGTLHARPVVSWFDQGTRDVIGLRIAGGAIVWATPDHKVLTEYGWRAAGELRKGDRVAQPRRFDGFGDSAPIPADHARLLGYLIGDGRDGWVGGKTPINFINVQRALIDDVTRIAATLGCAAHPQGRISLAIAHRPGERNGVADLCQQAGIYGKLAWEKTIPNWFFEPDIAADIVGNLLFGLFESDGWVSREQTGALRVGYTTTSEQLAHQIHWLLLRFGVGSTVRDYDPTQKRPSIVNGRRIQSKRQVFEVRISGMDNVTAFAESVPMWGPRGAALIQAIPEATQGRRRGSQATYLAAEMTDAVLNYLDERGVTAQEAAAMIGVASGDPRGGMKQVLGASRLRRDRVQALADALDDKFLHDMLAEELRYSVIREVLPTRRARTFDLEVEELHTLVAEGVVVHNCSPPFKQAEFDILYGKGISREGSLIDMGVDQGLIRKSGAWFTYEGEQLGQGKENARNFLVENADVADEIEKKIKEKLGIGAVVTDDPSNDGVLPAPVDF

Sequence of Eukaryotic translation initiation factor 4E (P63073 whole entry): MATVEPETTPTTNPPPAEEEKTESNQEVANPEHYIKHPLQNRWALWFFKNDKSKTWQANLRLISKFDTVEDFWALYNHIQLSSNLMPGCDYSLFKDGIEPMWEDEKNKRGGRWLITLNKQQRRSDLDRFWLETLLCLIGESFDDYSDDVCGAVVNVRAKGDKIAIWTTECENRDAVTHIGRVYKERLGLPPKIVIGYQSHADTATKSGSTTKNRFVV
T4 sequence (Q00975 whole entry): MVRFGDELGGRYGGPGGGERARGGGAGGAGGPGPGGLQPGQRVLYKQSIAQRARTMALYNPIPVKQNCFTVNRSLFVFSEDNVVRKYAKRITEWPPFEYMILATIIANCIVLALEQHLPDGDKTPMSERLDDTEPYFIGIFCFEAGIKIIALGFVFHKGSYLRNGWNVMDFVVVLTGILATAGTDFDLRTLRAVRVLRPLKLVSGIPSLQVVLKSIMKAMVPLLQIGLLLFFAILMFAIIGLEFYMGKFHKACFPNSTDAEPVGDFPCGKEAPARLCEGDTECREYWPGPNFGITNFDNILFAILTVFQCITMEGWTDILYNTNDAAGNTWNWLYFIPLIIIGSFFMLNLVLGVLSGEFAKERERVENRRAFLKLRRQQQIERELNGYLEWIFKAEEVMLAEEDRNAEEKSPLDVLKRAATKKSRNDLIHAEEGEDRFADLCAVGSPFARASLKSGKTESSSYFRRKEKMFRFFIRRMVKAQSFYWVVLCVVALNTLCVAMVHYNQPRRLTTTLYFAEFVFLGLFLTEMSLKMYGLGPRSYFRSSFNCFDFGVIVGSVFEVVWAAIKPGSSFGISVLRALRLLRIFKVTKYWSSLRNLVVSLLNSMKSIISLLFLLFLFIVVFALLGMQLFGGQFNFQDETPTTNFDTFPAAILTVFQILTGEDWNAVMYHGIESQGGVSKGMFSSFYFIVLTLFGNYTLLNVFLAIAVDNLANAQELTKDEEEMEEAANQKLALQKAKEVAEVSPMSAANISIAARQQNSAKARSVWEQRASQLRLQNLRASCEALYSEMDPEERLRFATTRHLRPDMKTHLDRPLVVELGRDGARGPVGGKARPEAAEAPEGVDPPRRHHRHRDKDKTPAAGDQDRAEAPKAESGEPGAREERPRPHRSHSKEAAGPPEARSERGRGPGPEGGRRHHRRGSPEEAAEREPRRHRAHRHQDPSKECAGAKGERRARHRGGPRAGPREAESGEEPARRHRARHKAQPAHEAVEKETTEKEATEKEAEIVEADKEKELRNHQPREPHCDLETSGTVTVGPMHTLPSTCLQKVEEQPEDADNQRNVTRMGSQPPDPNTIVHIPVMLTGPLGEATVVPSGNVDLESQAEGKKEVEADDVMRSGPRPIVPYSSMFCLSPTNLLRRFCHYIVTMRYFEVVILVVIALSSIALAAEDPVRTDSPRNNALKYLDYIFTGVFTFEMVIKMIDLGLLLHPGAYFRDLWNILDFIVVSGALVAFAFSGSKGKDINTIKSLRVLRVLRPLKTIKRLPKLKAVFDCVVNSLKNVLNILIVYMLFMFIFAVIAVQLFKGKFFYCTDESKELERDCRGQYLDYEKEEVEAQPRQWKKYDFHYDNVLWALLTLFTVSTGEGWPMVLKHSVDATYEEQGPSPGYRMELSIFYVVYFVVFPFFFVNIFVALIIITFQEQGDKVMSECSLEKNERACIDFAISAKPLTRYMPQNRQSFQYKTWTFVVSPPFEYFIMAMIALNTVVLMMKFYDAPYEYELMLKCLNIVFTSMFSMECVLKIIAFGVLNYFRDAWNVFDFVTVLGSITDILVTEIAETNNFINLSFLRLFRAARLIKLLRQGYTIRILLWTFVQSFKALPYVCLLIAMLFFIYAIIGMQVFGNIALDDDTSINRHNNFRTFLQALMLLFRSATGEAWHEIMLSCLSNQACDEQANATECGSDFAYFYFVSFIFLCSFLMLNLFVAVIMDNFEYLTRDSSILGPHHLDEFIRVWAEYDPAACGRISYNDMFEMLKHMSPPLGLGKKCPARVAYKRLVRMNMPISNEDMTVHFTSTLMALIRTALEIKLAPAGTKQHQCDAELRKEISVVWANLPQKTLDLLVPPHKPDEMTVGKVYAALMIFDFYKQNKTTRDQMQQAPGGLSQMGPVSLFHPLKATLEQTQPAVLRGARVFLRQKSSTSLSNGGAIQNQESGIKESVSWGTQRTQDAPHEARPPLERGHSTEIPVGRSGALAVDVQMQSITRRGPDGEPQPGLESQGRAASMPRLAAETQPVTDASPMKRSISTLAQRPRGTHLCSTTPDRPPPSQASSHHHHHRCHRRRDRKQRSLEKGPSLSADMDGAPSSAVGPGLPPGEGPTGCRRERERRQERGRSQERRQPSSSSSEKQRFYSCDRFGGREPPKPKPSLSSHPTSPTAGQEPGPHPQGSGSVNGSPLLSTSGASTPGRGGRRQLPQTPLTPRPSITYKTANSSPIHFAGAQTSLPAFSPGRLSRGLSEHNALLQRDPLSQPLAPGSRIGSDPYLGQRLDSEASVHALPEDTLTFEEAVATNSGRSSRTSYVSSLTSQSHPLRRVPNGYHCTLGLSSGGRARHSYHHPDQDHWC
T4 sequence (Q02410 whole entry): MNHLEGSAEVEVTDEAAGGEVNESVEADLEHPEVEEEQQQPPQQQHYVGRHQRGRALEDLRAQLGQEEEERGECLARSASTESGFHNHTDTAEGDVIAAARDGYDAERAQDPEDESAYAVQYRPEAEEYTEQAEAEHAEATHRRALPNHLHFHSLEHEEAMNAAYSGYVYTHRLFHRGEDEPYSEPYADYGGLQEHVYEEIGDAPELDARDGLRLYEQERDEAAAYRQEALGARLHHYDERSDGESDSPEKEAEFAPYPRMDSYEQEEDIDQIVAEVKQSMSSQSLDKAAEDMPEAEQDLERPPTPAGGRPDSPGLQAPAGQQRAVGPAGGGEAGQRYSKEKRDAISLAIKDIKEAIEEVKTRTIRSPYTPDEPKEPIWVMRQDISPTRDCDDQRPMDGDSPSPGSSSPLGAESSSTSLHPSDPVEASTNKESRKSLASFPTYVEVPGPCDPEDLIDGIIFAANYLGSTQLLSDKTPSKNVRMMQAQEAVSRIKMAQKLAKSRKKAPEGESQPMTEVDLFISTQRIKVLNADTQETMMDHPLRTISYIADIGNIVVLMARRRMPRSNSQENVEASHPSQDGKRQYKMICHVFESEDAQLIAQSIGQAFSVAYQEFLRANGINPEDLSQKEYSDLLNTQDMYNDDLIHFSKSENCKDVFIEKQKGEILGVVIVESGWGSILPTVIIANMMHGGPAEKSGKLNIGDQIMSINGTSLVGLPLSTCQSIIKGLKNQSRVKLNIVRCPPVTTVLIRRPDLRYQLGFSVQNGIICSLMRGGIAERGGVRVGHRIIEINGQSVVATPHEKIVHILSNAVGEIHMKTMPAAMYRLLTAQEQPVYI
Sequence of Beta-galactosidase (Q8VNN2 whole entry): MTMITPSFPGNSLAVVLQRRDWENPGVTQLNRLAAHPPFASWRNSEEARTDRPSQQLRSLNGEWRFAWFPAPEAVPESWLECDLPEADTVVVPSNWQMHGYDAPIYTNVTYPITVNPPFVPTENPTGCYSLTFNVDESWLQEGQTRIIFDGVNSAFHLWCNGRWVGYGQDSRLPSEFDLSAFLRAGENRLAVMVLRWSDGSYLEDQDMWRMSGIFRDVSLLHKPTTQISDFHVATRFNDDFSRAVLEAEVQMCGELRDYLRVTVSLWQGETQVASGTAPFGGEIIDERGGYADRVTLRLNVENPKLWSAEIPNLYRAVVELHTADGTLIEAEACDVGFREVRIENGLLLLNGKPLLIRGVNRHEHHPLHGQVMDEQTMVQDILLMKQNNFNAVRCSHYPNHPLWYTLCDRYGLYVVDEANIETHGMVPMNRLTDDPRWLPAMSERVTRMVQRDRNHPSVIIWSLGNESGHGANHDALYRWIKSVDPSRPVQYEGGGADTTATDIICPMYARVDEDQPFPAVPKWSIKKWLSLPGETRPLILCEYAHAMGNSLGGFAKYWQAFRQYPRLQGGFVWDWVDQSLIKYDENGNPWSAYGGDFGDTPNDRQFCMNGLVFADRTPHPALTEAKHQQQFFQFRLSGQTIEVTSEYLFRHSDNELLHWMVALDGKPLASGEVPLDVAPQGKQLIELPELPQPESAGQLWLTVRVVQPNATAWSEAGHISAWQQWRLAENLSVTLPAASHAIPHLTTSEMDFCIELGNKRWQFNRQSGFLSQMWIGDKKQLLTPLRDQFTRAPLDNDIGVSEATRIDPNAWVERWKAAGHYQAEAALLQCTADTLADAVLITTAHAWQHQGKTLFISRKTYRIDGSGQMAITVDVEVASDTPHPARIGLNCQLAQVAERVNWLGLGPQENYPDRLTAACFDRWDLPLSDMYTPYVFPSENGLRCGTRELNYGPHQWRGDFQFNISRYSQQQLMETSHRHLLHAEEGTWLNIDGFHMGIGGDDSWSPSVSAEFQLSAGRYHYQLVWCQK
Sequence of G-protein coupled receptor 55 (Q9Y2T6 whole entry, the tested form may be a part): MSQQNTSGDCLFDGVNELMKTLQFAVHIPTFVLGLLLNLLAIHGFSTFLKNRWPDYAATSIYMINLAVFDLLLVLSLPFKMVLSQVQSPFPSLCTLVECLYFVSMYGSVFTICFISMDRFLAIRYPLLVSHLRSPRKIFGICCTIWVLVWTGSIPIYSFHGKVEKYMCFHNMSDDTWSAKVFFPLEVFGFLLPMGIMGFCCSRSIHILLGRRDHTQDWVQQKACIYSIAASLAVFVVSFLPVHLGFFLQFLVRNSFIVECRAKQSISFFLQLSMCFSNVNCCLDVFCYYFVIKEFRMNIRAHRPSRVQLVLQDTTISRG
Sequence of Nonstructural protein 1 (Q194T2 whole entry): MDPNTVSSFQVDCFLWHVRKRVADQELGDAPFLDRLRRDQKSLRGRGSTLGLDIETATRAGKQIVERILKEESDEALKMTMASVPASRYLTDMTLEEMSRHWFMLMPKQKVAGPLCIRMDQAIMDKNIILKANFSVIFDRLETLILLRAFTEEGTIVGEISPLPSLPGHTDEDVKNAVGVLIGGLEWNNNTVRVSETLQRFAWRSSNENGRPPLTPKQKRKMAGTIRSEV

## CCOC(=O)N1CCN(c2ccnc3cc(Cl)ccc23)CC1
[1]
  IC50: 15.7 µM (not active)
Insulin-degrading enzyme
  IC50: 18.9 µM (not active)

## Cc1c(OC(C)C(=O)NCc2ccncc2)ccc2c3c(c(=O)oc12)CCCC3 (centres undefined)
[1]
  IC50: 15.5 µM (not active)
Insulin-degrading enzyme
  IC50: > 55.9 µM (not active)

## CN(c1ccc(C(=O)Nc2ccccc2Sc2ccccc2)cc1)S(C)(=O)=O
[2]
  CC50: > 40 µM (active)

## CC1=C([N+](=O)[O-])C(c2ccc(O)c(O)c2)NC(=O)N1 (centres undefined)
Aspartyl aminopeptidase
  IC50: 864 nM (active)
Procathepsin L
  IC50: > 59.6 µM (not active)

## COc1cnc(-c2ccccn2)nc1Sc1ccc(C)cc1
[3]
  IC50: 6.95 µM (active)
[4]
  IC50: > 67 µM (not active)
INS1
  AC50: 5.03 µM (active)

## CC(=O)OCC1OC(C#Cc2ccc(F)cc2F)C=CC1OC(C)=O (centres undefined)
Cytochrome P450 2D6
  AC50: 6.31 µM (inconclusive)

## C[C@H](CCC(=O)O)[C@H]1CC[C@H]2[C@@H]3[C@@H](O)C[C@@H]4C[C@H](O)CC[C@]4(C)[C@H]3CC[C@]12C [URSODIOL]
Aminopeptidase N
  IC50: 2.6 µM (active)

## O=C(O)c1ccc(N2C(=O)/C(=C/c3ccc(-c4ccc([N+](=O)[O-])cc4)o3)C=C2c2ccccc2)cc1
Leucine aminopeptidase
  IC50: 21.4 µM (active)
[5]
  IC50: 5.56 µM (active)
[6]
  IC50: < 500 nM (active)
[7]
  IC50: > 50 µM (active)
[8]
  IC50: > 50 µM (inactive)
[9]
  CC50: 15.8 µM (active)
[10]
  IC50: 417 nM (active)
Beta-galactosidase
  IC50: 33.8 µM (active)
[11]
  IC50: 9.86 µM (active) and 3.93 µM (active)
Nonstructural protein 1
  IC50: 6.04 µM (active)
[12]
  AC50: 56.7 µM (active)
Protein RecA
  EC50: > 380 µM (inactive)

From ChEMBL document CHEMBL1201862, “PubChem BioAssay data set” (2004)
